Source: publication PMC8372184 (Synlett : accounts and rapid communications in synthetic …, 2021)

Legend:
GetI = molecular target: T1, GetI (Streptomyces sp. L-49973, UniProt E0WFM2); test: preparative-scale 4-hydroxylation; format: cell-based; conditions: alpha-ketoglutarate, Fe(II)
T1 sequence (E0WFM2 1-345): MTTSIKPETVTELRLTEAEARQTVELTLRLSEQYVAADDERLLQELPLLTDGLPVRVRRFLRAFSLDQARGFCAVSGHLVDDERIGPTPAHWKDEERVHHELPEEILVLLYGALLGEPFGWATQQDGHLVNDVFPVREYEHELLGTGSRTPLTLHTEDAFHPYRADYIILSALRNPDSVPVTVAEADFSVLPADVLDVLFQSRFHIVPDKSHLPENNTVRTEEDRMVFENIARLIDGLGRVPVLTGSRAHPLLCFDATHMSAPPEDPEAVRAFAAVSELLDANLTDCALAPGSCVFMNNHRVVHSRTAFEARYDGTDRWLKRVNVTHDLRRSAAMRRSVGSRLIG

GetF [1] = molecular target: T2, GetF (Streptomyces sp. L-49973, UniProt E0WFM0); test: preparative-scale hydroxylation; format: cell-based; conditions: alpha-ketoglutarate, Fe(II)
T2 sequence (E0WFM0 1-363): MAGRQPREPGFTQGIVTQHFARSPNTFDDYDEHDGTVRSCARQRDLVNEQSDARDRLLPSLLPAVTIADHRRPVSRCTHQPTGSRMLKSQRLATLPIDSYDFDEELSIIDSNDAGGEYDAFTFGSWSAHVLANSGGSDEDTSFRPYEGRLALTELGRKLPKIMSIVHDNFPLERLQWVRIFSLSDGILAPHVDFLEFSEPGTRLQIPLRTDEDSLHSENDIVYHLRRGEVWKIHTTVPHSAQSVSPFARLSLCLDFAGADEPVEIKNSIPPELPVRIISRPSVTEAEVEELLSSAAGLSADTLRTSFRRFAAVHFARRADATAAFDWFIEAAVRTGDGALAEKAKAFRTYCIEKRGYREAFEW

GriE = molecular target: T3, GriE (Streptomyces muensis, UniProt A0A0E3URV8); test: LCMS of C5 hydroxylation; format: biochemical; conditions: alpha-ketoglutarate, Fe(II), ascorbate
T3 sequence (A0A0E3URV8 1-270): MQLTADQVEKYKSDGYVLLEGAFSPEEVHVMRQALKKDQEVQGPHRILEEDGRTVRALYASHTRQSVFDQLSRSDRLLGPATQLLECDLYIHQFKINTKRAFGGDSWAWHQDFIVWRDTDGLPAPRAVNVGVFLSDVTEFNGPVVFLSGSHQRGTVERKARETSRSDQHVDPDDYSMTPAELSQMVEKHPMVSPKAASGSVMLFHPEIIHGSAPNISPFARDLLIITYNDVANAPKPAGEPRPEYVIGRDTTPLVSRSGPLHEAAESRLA

GlbB = molecular target: T4, GlbB (Caldimonas brevitalea, UniProt A8KCI8); test: 4-hydroxylation; format: biochemical; conditions: alpha-ketoglutarate, Fe(II)
T4 sequence (A8KCI8 1-286): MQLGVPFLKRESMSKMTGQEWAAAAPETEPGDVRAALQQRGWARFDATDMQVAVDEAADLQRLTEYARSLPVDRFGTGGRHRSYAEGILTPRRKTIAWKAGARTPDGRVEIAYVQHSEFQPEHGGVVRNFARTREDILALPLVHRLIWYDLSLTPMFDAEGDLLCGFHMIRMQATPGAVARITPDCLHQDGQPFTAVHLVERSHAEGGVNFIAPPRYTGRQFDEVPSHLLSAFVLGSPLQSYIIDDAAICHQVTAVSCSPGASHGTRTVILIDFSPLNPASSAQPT

KDO1 = molecular target: T5, KDO1 (Catenulispora acidiphila, UniProt C7QJ42); test: gram-scale 3-hydroxylation in E. coli lysate; format: biochemical; conditions: alpha-ketoglutarate, Fe(II)
T5 sequence (C7QJ42 1-358): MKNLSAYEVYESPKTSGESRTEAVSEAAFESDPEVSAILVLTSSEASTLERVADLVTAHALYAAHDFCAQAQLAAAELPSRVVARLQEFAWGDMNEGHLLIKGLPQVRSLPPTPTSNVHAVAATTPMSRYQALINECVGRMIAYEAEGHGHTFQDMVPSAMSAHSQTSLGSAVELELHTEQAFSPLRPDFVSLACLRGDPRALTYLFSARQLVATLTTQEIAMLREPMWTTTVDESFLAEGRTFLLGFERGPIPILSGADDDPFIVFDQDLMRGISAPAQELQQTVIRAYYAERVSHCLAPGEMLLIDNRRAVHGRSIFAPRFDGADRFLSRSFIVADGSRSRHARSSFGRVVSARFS

GetF [2] = molecular target: T2, GetF; test: C3 hydroxylation, product isolated after Boc protection; format: cell-based; conditions: alpha-ketoglutarate, Fe(II)

## NC(=O)NCCC[C@H](N)C(=O)O [L-Cit]
GetI
  preparative-scale 4-hydroxylation: Biocatalytic hydroxylation of L-Pip and L-Cit was performed on preparative scale with GetF and GetI

## O=C(O)[C@@H]1CCCCN1 [L-Pip]
GetF [1]
  preparative-scale hydroxylation: Biocatalytic hydroxylation of L-Pip and L-Cit was performed on preparative scale with GetF and GetI

## CC(C)C[C@H](N)C(=O)O [L-leucine]
GriE
  LCMS of C5 hydroxylation: GriE revealed a highly active enzyme that is capable of hydroxylating L-leucine

## NCCCC[C@H](N)C(=O)O [L-lysine]
GlbB
  4-hydroxylation: GlbB was shown to be a highly efficient enzyme capable of hydroxylating L-lysine
KDO1
  gram-scale 3-hydroxylation in E. coli lysate: optimizing the biocatalytic hydroxylation with lysates of E. coli expressing KDO1

## C[C@H]1CCN[C@@H]1C(=O)O [compound 15, proline derivative 15]
GetF [2]
  C3 hydroxylation, product isolated after Boc protection: The final C3 hydroxylation was performed with GetF
